Source: patent publication US9284362B2, “α/β-peptide mimics of Z-domain peptides” (Wisconsin Alumni Research Foundation, priority 2014, dated 2016)
“Also recorded” adds a separate entry of the source. *1 amine or outer side, *2 acyl side, *3 side chain or, on linkers, in order; H or OH if unused. Where a SMILES comes first, the peptide text is derived from it. Where no end group is shown, it is not given here. [ ]: non-standard residue; d: D form. The star is where a group is joined. ξ: configuration not given here. ξ(4-Aminopyrrolidine-3-CO) = O=C(C1CNCC1N[*:1])[*:2]; NH(1S,2S-2-CONH2-cPent) = NC(=O)[C@H]1CCC[C@@H]1N*; ACPC(1S,2S) = N[C@H]1CCC[C@@H]1C(=O)*; X1 = O=C([C@H]1CCC[C@@H]1N[*:1])[*:2]; X2 = O=C([C@H]1CNC[C@@H]1N[*:1])[*:2]; Aib = CC(C)(N)C(=O)O

Legend:
HER2 [1] = molecular target: T1, HER2 (Homo sapiens, UniProt P04626); settings: cited from earlier work
VEGF = molecular target: T2, VEGF (Homo sapiens, UniProt P15692); experiment: VEGF competition fluorescence polarization (FP) assay; type: binding; settings: for binding to VEGF (in words): competition FP assay
T2 construct: made in house
T2 sequence (P15692 27-191 isoform P15692-4): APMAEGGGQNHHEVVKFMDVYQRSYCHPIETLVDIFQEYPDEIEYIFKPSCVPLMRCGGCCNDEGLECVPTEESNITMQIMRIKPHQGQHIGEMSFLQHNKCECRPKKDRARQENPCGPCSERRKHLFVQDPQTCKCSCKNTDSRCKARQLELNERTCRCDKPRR
Procedure: Inhibitors of the VEGF/VEGFR interaction were evaluated using VEGF direct binding and competition fluorescence polarization (FP) assays, as previously described (Peterson, K. J. et al., Anal. Biochem. 2008, 378, 8-14), but using a modified tracer. […] DMSO stock solutions of α- and α/β-peptide inhibitors were prepared and concentration determined by UV absorbance at 280 nm. Extinction coefficients for α- and α/β-peptides were calculated based on the number of tryptophans (ε280=5690 M^−1 cm^−1), tyrosines (ε280=1280 M^−1 cm^−1), and cystines (ε280=120 M^−1 cm^−1) in each primary sequence (Gill, S. C, et al. Anal. Biochem. 1989, 182, 319-326). […] Each condition was run in duplicate in each assay. Inhibition constants (Ki) were determined from FP data using methods described for a competitive binding model with GraphPad Prism 4.0 (Peterson, K. J. et al., Anal. Biochem. 2008, 378, 8-14). Reported Ki values are representative values from multiple replicate assays.
FP assays were only run once to test binding affinity.

HER2 [2] = molecular target: T1, HER2; experiment: Z-HER2 mimics binding, ELISA 3; settings: read-out: ELISA 3 Ki calcd.
[3] = Half-life of Z-HER2 mimics (Table 16); type: in vitro ADME; settings: conditions not given; read-out: half-life t1/2
[4] = molecular target: T3, TNFα (binding to immobilized TNFR1) (Homo sapiens, UniProt P01375); experiment: TNFα/TNFR competition ELISA; settings: Table 14; read-out: TNFa-TNFR ELISA IC50
T3 construct: purchased R&D Systems 210-TA-020 (TNFα); 636-R1-025 (sTNF RI)
Procedure: The binding of α/β-peptides to TNFα to inhibit binding to TNFR was determined by competition ELISA. […] After immobilization, the plate was washed with PBS/0.05% TWEEN, blocked with 1% BSA in PBS for 2 hours, and then washed with PBS/0.05% TWEEN. Serial dilutions of soluble α/β-peptides in DMSO were prepared (final concentrations=0.04 nM-10 μM), and 10 μL of each of these solutions added to 240 μL of recombinant human TNFα (R&D Systems, 210-TA-020, final concentration=0.080 μg/mL) in PBS/0.05% TWEEN. The α/β-peptides were allowed to pre-incubate with TNFα for 3 hours and then 50 μL of each α/β-peptide/TNFα mixture was added to wells on the ELISA plate and incubated at room temperature for 1 hour. The plate was then washed with PBS/0.05% TWEEN and the presence of TNFα detected by adding 100 μL of a 1:500 dilution of Human TNFα Biotinylated Affinity Purified PAb (R&D Systems, BAF210) and incubating at room temperature for 1 hour. […] Plates were read during the time course of the reaction on a BioTek Synergy 2 microplate reader, reading A405. […] To compare the ability of each soluble α/β-peptide to inhibit the binding of TNFα to immobilized TNFR, IC50 values were calculated by fitting the ELISA absorbance data to a sigmoidal dose-response equation.

[5] = tested on: VEGF-induced proliferation of human umbilical vein endothelial cells (HUVECs); experiment: HUVEC proliferation assay (VEGF165-induced, Click-iT EdU); type: cell-based; settings: 50 μM peptide, 10 ng/mL VEGF165
Procedure: Human umbilical vein endothelial cells (HUVECs) (Lonza, Basel, Switzerland, catalog no. CC2519) were cultured using Medium 199 (M199) (Mediatech, Herndon, Va., USA; 50-050-PB) supplemented with penicillin/steptomycin (HyClone-brand, Thermo Fisher Scientific, Herndon, Va., USA; SV30010) and EGM-2 (Lonza, CC4176) at 37° C. in 5% CO2. Cells were grown to 60-80% confluence and then serum-starved in M199 with 2% cosmic calf serum (CCS) (HyClone-brand, SH30087) overnight. […] Filter sterilized stock solutions of α- or α/β-peptide in PBS were made at a concentration of 200 μM, as determined by UV absorbance. Appropriate dilutions of α- or α/β-peptide were made with PBS, and the resulting solutions were premixed with recombinant human VEGF165 (R&D Systems, 293-VE-010) or recombinant human FGF basic (FGF-2) (R&D Systems, a wholly owned subsidiary of TECHNE Corporation, Minneapolis, Minn., USA; 233-FB-025) in M199/2% CCS and incubated at room temperature for 1 hour. […] Relative cell proliferation was quantified using the “Click-iT”-brand EdU Alexa Flour 488 Assay (Life Technologies, C10337). […] EdU incorporation was detected using Life Technologies' assay protocol. […] Images were analyzed using NIS-Elements AR Imaging Software (Nikon Instruments, Inc., Melville, N.Y., USA) to count the number of proliferating cells (EdU stained) and total number of cells (Hoechst stained). […]

T3 sequence (P01375 77-233 limits assumed): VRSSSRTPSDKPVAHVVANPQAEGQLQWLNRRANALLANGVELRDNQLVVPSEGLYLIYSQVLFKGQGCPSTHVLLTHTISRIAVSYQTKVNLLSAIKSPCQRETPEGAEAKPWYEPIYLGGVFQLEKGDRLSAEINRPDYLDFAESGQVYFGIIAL

82 (VENKFNKEMRNAYWEIALLPNLNNQQKRAFIRSLYDDPG; listed as Homo sapiens) [compound 82]
reported Kd (HER2 [1]): no blinding

CC[C@H](C)[C@H](NC(=O)[C@H](C)NC(=O)[C@H]1CCC[C@@H]1NC(=O)[C@H](C)NC(=O)[C@H](CC(N)=O)NC(=O)[C@H](Cc1c[nH]cn1)NC(=O)[C@H]1CCC[C@@H]1NC(=O)[C@H](CCC(=O)O)NC(=O)[C@@H](N)CCCCN)C(=O)N[C@@H](CCC(=O)O)C(=O)N[C@H](C(=O)N[C@@H](C)C(=O)N[C@@H](CC(C)C)C(=O)N[C@@H](CC(C)C)C(=O)N1CCC[C@H]1C(=O)N[C@@H](CC(N)=O)C(=O)N[C@@H](CC(C)C)C(=O)N[C@@H](CC(N)=O)C(=O)N[C@@H](CC(=O)O)C(=O)N[C@@H](CCC(N)=O)C(=O)N[C@@H](CCC(N)=O)C(=O)N[C@@H](Cc1ccccc1)C(=O)N[C@@H](Cc1c[nH]cn1)C(=O)N[C@@H](C)C(=O)N[C@H]1CCC[C@@H]1C(=O)N[C@H](C(=O)N[C@@H](Cc1c[nH]c2ccccc12)C(=O)N[C@H]1CCC[C@@H]1C(=O)N[C@@H](CC(C)C)C(=O)N[C@H](C(=O)N[C@@H](CC(=O)O)C(=O)N[C@@H](CC(=O)O)C(=O)N1CCC[C@H]1C(=O)N[C@@H](CO)C(N)=O)[C@@H](C)CC)[C@@H](C)CC)[C@@H](C)CC [E4, KEXHNAXAIEIALLPNLNDQQFHAXIWXLIDDPS] (H-KE[X1]HNA[X1]AIEIALLPNLNDQQFHA[X1]IW[X1]LIDDPS-NH2)
Ki (VEGF; Table 5, early mimics, FP assay run once): > 50000 nM

CC[C@H](C)[C@H](NC(=O)C1CNCC1NC(=O)[C@H](CCCNC(=N)N)NC(=O)[C@@H](NC(=O)[C@H](CCCCN)NC(=O)C(C)(C)NC(=O)[C@H](CCCNC(=N)N)NC(=O)[C@H](CCCCN)NC(=O)[C@H](CCC(N)=O)NC(=O)C(C)(C)NC(=O)[C@H](CC(N)=O)NC(=O)[C@H](CC(N)=O)NC(=O)[C@H](CC(C)C)NC(=O)[C@H](CC(N)=O)NC(=O)[C@@H]1CCCN1C(=O)[C@H](CC(=O)O)NC(=O)[C@H](CC(C)C)NC(=O)[C@H](C)NC(=O)C(C)(C)NC(=O)[C@H](CCC(=O)O)NC(=O)[C@H](Cc1c[nH]c2ccccc12)NC(=O)[C@H](Cc1ccc(O)cc1)NC(=O)[C@H](CCCNC(=N)N)NC(=O)C1CNCC1NC(=O)[C@H](CCCNC(=N)N)NC(=O)[C@H](CCSC)NC(=O)[C@H]1CCC[C@@H]1NC(=O)[C@H](CCCCN)NC(=O)[C@H](CC(N)=O)NC(=O)[C@@H](N)Cc1ccccc1)[C@@H](C)CC)C(=O)N[C@@H](Cc1ccc(O)cc1)C(=O)N[C@@H](CC(=O)O)C(=O)N[C@@H](CC(=O)O)C(=O)N1CCC[C@H]1C(=O)N[C@@H](CO)C(N)=O (stereo partly shown) [compound 97] (H-FNK[X1]MR[ξ(4-Aminopyrrolidine-3-CO)]RYWE[Aib]ALDPNLNN[Aib]QKR[Aib]KIR[ξ(4-Aminopyrrolidine-3-CO)]IYDDPS-NH2)
Ki (HER2 [2]): 33 nM | half-life [3]: 4.33 h

CC[C@H](C)[C@H](NC(=O)[C@H](CCCNC(=N)N)NC(=O)[C@H](Cc1c[nH]c2ccccc12)NC(=O)CNC(=O)[C@@H](N)CC(C)C)C(=O)NCC(=O)N[C@@H](CCC(=O)O)C(=O)NC(C)(C)C(=O)NCC(=O)N[C@H](C(=O)N[C@@H](CC(=O)O)C(=O)N1CCC[C@H]1C(=O)N[C@@H](CC(N)=O)C(=O)N[C@@H](CC(C)C)C(=O)N[C@@H](CC(N)=O)C(=O)N[C@@H](Cc1c[nH]cn1)C(=O)N[C@@H](CCC(N)=O)C(=O)N[C@@H](CCC(N)=O)C(=O)N[C@@H](Cc1ccccc1)C(=O)N[C@@H](CCCNC(=N)N)C(=O)NC(C)(C)C(=O)N[C@@H](CCCCN)C(=O)N[C@H](C(=O)N[C@@H](CC(C)C)C(=O)N[C@H]1CNC[C@@H]1C(=O)N[C@H](C(=O)N[C@@H](Cc1c[nH]c2ccccc12)C(=O)N[C@H]1CCC[C@@H]1C(N)=O)[C@@H](C)CC)[C@@H](C)CC)[C@@H](C)O [α/β-TNFα-14, LGWRIGEAGTDPNLNHQQFRAKILZIWX-NH2] (H-LGWRIGE[Aib]GTDPNLNHQQFR[Aib]KIL[X2]IW-{NH(1S,2S-2-CONH2-cPent)}; N-terminus assumed)
IC50 [4]: 1000 nM

CC[C@H](C)[C@H](NC(=O)[C@H](CCCNC(=N)N)NC(=O)[C@H](Cc1c[nH]c2ccccc12)NC(=O)CNC(=O)[C@H](CC(C)C)NC(=O)[C@H]1CCC[C@@H]1N)C(=O)NCC(=O)N[C@@H](CCC(=O)O)C(=O)NC(C)(C)C(=O)NCC(=O)N[C@H](C(=O)N[C@@H](CC(=O)O)C(=O)N1CCC[C@H]1C(=O)N[C@@H](CC(N)=O)C(=O)N[C@@H](CC(C)C)C(=O)N[C@@H](CC(N)=O)C(=O)N[C@@H](Cc1c[nH]cn1)C(=O)N[C@@H](CCC(N)=O)C(=O)N[C@@H](CCC(N)=O)C(=O)N[C@@H](Cc1ccccc1)C(=O)N[C@@H](CCCNC(=N)N)C(=O)NC(C)(C)C(=O)N[C@@H](CCCCN)C(=O)N[C@H](C(=O)N[C@@H](CC(C)C)C(=O)N[C@H]1CNC[C@@H]1C(=O)N[C@H](C(=O)N[C@@H](Cc1c[nH]c2ccccc12)C(=O)N[C@H]1CCC[C@@H]1C(N)=O)[C@@H](C)CC)[C@@H](C)CC)[C@@H](C)O [α/β-TNFα-16, XLGWRIGEAGTDPNLNHQQFRAKILZIWX-NH2] ({ACPC(1S,2S)}-LGWRIGE[Aib]GTDPNLNHQQFR[Aib]KIL[X2]IW-{NH(1S,2S-2-CONH2-cPent)}; N-terminus assumed)
IC50 [4]: 510 nM

KEMHNAYAIEIALLPNLNDQQFHAFIWSLIDDPS-NH2 [Z-VEGF (7-40)]
binding to VEGF (in words) (VEGF): showed no binding

VDNKFNKEMHNAYAIEIALLPNLNDQQFHAFIWSLIDD-NH2 [Z-VEGF (1-38)]
binding to VEGF (in words) (VEGF): shows no binding | binding to VEGF (in words) (VEGF; listed as Z-VEGF(1-38)): complete loss of binding

VDNKFNKEQHNARAIEAALDPNLNDQQFHAKIWSIIDD-NH2 [α-VEGF-1]
solubility in PBS at 75 μM (Aqueous solubility (PBS)): fully soluble | inhibition of VEGF-induced HUVEC proliferation (in words) [5]: does not show any inhibition | binding to VEGF (in words) (VEGF): does not show binding; also recorded: did not recover binding

VDNKFNKEXHNZRAIEAALDPNLNDQQFHAKIWZIIXD [α/β-VEGF-1-linear]
binding to VEGF (in words) (VEGF): lack of binding; also recorded: essentially no binding
